Values of other authors, collected in PubChem BioAssay AID1259409 (Chemical Carcinogenesis Research Information System (CCRIS), 2018).

System: rodent chemically induced tumor inhibition, incidence and multiplicity
Test: CCRIS tumor inhibitor studies
Conditions: Route [Inhibitor]: ORAL, Species: RAT

## C=CC1=C(C)C2=CC3=NC(=C(CC(=O)O)C4=NC(=C(C)C4=C(O)O)C=c4[nH]c(c(C)c4CC)=CC1=N2)C(CCC(=O)O)C3C (stereo not given)
Carcinogen: 1,2-DIMETHYLHYDRAZINE [540-73-8], Dose [Inhibitor]: 0, 0.001% (W/V BASED ON TOTAL CHLORINS) IN DRINKING WATER BEGINNING 1 WK POST CARCINOGEN TREATMENT FOR THE DURATION STUD, Strain/Sex: F344/MALE, Target Tissue: Type of Lesion: COLON: TUMOR, Dose [Carcinogen]: 20 MG/KG FOR FIRST 5 WK (STUDY DURATION: 52 WK), Promoter: NONE
  tumour outcome (control, treated, inhibition, significance): 20/23 (87%), 18/20 (90%), -3.4%, not significant
Carcinogen: 1,2-DIMETHYLHYDRAZINE [540-73-8], Dose [Inhibitor]: 0, 0.001% (W/V BASED ON TOTAL CHLORINS) IN DRINKING WATER BEGINNING 1 WK POST CARCINOGEN TREATMENT FOR THE DURATION STUD, Strain/Sex: F344/MALE, Target Tissue: Type of Lesion: SMALL INTESTINE: TUMOR, Dose [Carcinogen]: 20 MG/KG BW/WK FOR FIRST 5 WK (STUDY DURATION: 52 WK), Promoter: NONE
  tumour outcome (control, treated, inhibition, significance): 12/23 (52%), 6/20 (30%), 42%, not significant
Carcinogen: 1,2-DIMETHYLHYDRAZINE [540-73-8], Dose [Inhibitor]: 0, 0.01% (W/V BASED ON TOTAL CHLORINS) IN DRINKING WATER BEGINNING 1 WK POST CARCINOGEN TREATMENT FOR THE DURATION STUDY, Strain/Sex: F344/MALE, Target Tissue: Type of Lesion: SMALL INTESTINE: TUMOR, Dose [Carcinogen]: 20 MG/KG BW/WK FOR FIRST 5 WK (STUDY DURATION: 52 WK), Promoter: NONE
  tumour outcome (control, treated, inhibition, significance): 12/23 (52%), 11/20 (55%), -6%, not significant
Carcinogen: 1,2-DIMETHYLHYDRAZINE [540-73-8], Dose [Inhibitor]: 0, 0.1% (W/V BASED ON TOTAL CHLORINS) IN DRINKING WATER BEGINNING 1 WK POST CARCINOGEN TREATMENT FOR THE DURATION STUDY, Strain/Sex: F344/MALE, Target Tissue: Type of Lesion: SMALL INTESTINE: TUMOR, Dose [Carcinogen]: 20 MG/KG BW/WK FOR FIRST 5 WK (STUDY DURATION: 52 WK), Promoter: NONE
  tumour outcome (control, treated, inhibition, significance): 12/23 (52%), 5/20 (25%), 52%, not significant
Carcinogen: 1,2-DIMETHYLHYDRAZINE [540-73-8], Strain/Sex: F344/MALE, Target Tissue: Type of Lesion: COLON: TUMOR, Dose [Carcinogen]: 20 MG/KG FOR FIRST 5 WK (STUDY DURATION: 52 WK), Promoter: NONE
  tumour outcome (control, treated, inhibition, significance): 20/23 (87%), 20/20 (100%), -15%, not significant
Carcinogen: 2-AMINO-1-METHYL-6-PHENYL-1H-IMIDAZO[4,5-B]PYRID INE, 105650-23-5, Dose [Inhibitor]: 0, 1% IN THE DIET FOR 52 WK (STUDY DURATION: 52 WK), Strain/Sex: F344/FEMALE, Target Tissue: Type of Lesion: MAMMARY GLAND: ADENOCARCINOMA, Dose [Carcinogen]: 0.02% IN THE DIET FOR 52 WK, Promoter: NONE USED
  tumour outcome (control, treated, inhibition, significance): 8/20 (40%), 3/20 (15%), 63%, not significant
Carcinogen: 2-AMINO-1-METHYL-6-PHENYL-1H-IMIDAZO[4,5-B]PYRID INE, 105650-23-5, Dose [Inhibitor]: 0, 1% IN THE DIET FOR 52 WK (STUDY DURATION: 52 WK), Strain/Sex: F344/FEMALE, Target Tissue: Type of Lesion: MAMMARY GLAND: FIBROADENOMA, Dose [Carcinogen]: 0.02% IN THE DIET FOR 52 WK, Promoter: NONE USED
  tumour outcome (control, treated, inhibition, significance): 2/20 (10%), 0/20 (0%), 100%, not significant
Carcinogen: 2-AMINO-3-METHYLIMIDAZO[4,5-F]QUINOLINE [76180-96-6], Dose [Inhibitor]: 0, 0.001% (W/V BASED ON TOTAL CHLORINS) IN DRINKING WATER BEGINNING 1 WK POST CARCINOGEN TREATMENT FOR THE DURATION STUD, Strain/Sex: F344/MALE, Target Tissue: Type of Lesion: COLON: TUMOR, Dose [Carcinogen]: 0.03% IN DIET FOR FIRST 5 WK (STUDY DURATION: 52 WK), Promoter: NONE
  tumour outcome (control, treated, inhibition, significance): 2/22 (9%), 2/20 (10%), -11%, not significant
Carcinogen: 2-AMINO-3-METHYLIMIDAZO[4,5-F]QUINOLINE [76180-96-6], Dose [Inhibitor]: 0, 0.001% (W/V BASED ON TOTAL CHLORINS) IN DRINKING WATER BEGINNING 1 WK POST CARCINOGEN TREATMENT FOR THE DURATION STUD, Strain/Sex: F344/MALE, Target Tissue: Type of Lesion: LIVER: TUMOR, Dose [Carcinogen]: 0.03% IN DIET FOR FIRST 5 WK (STUDY DURATION: 52 WK), Promoter: NONE
  tumour outcome (control, treated, inhibition, significance): 16/22 (73%), 12/20 (60%), 18%, not significant
Carcinogen: 2-AMINO-3-METHYLIMIDAZO[4,5-F]QUINOLINE [76180-96-6], Dose [Inhibitor]: 0, 0.001% (W/V BASED ON TOTAL CHLORINS) IN DRINKING WATER BEGINNING 1 WK POST CARCINOGEN TREATMENT FOR THE DURATION STUD, Strain/Sex: F344/MALE, Target Tissue: Type of Lesion: SKIN: TUMOR, Dose [Carcinogen]: 0.03% IN DIET FOR FIRST 5 WK (STUDY DURATION: 52 WK), Promoter: NONE
  tumour outcome (control, treated, inhibition, significance): 7/22 (32%), 5/20 (25%), 22%, not significant
Carcinogen: 2-AMINO-3-METHYLIMIDAZO[4,5-F]QUINOLINE [76180-96-6], Dose [Inhibitor]: 0, 0.001% (W/V BASED ON TOTAL CHLORINS) IN DRINKING WATER BEGINNING 1 WK POST CARCINOGEN TREATMENT FOR THE DURATION STUD, Strain/Sex: F344/MALE, Target Tissue: Type of Lesion: SMALL INTESTINE: TUMOR, Dose [Carcinogen]: 0.03% IN DIET FOR FIRST 5 WK (STUDY DURATION: 52 WK), Promoter: NONE
  outcome: 0/22 (0%), 1/20 (5%), -%, not significant
Carcinogen: 2-AMINO-3-METHYLIMIDAZO[4,5-F]QUINOLINE [76180-96-6], Dose [Inhibitor]: 0, 0.001% (W/V BASED ON TOTAL CHLORINS) IN DRINKING WATER BEGINNING 1 WK POST CARCINOGEN TREATMENT FOR THE DURATION STUD, Strain/Sex: F344/MALE, Target Tissue: Type of Lesion: ZYMBAL'S GLAND: TUMOR, Dose [Carcinogen]: 0.03% IN DIET FOR FIRST 5 WK (STUDY DURATION: 52 WK), Promoter: NONE
  tumour outcome (control, treated, inhibition, significance): 5/22 (23%), 3/20 (15%), 35%, not significant
Carcinogen: 2-AMINO-3-METHYLIMIDAZO[4,5-F]QUINOLINE [76180-96-6], Dose [Inhibitor]: 0, 0.01% (W/V BASED ON TOTAL CHLORINS) IN DRINKING WATER BEGINNING 1 WK POST CARCINOGEN TREATMENT FOR THE DURATION STUDY, Strain/Sex: F344/MALE, Target Tissue: Type of Lesion: COLON: TUMOR, Dose [Carcinogen]: 0.03% IN DIET FOR FIRST 5 WK (STUDY DURATION: 52 WK), Promoter: NONE
  tumour outcome (control, treated, inhibition, significance): 2/22 (9%), 2/20 (10%), -11%, not significant
Carcinogen: 2-AMINO-3-METHYLIMIDAZO[4,5-F]QUINOLINE [76180-96-6], Dose [Inhibitor]: 0, 0.01% (W/V BASED ON TOTAL CHLORINS) IN DRINKING WATER BEGINNING 1 WK POST CARCINOGEN TREATMENT FOR THE DURATION STUDY, Strain/Sex: F344/MALE, Target Tissue: Type of Lesion: LIVER: TUMOR, Dose [Carcinogen]: 0.03% IN DIET FOR FIRST 5 WK (STUDY DURATION: 52 WK), Promoter: NONE
  tumour outcome (control, treated, inhibition, significance): 16/22 (73%), 10/20 (50%), 31.5%, not significant
Carcinogen: 2-AMINO-3-METHYLIMIDAZO[4,5-F]QUINOLINE [76180-96-6], Dose [Inhibitor]: 0, 0.01% (W/V BASED ON TOTAL CHLORINS) IN DRINKING WATER BEGINNING 1 WK POST CARCINOGEN TREATMENT FOR THE DURATION STUDY, Strain/Sex: F344/MALE, Target Tissue: Type of Lesion: SKIN: TUMOR, Dose [Carcinogen]: 0.03% IN DIET FOR FIRST 5 WK (STUDY DURATION: 52 WK), Promoter: NONE
  tumour outcome (control, treated, inhibition, significance): 7/22 (32%), 7/20 (35%), -9%, not significant
